Measurements as given in patent publication US20080181971A1, “Combination Cancer Treatments Comprising Elsamitrucin and Other Agents” (priority 2007, published 2008).
Like-named read-outs stand apart in the source and are kept apart here.

Tests used:
Type in all cases: cell-based
[1] = test system: HT29 human colon carcinoma cell line; experiment: MTT growth inhibition assay, single agents and fixed-ratio combinations with elsamitrucin (Chou-Talalay, CalcuSyn), HT29
Procedure: (§1) These individual agents and their combinations were evaluated for in vitro activity against the HT29 colon carcinoma, SKMES non-small cell lung carcinoma, and Daudi B-lymphoblastic cell lines. Cell growth in 96-well microculture plates was determined with a semi-automated MTT assay. Efficacies of drug combinations were analyzed according to the methods of Chou and Talalay, utilizing CalcuSyn software. Twenty-one in vitro experiments were conducted to determine the individual and combined growth inhibitory activities of elsamitrucin and the ten selected agents in the three cell lines.
(§2) b. Cell Lines. The human HT29 colon carcinoma, SKMES non-small cell lung carcinoma, and Daudi B-lymphoblastic cell lines were originally obtained from ATCC (American Type Culture Collection). These cell lines have been maintained and stored as frozen stocks. […] The medium for Daudi cells was additionally supplemented with 1 mM sodium pyruvate.
(§3) c. Growth Inhibition Assay. Anti-proliferative activities against the HT29, SKMES, and Daudi cell lines were evaluated in vitro by the MTT assay. Cells (1,500-2,000 cells/well) were seeded in a 96-well microculture plate in 180 pL of medium/well. […] DMSO was present in all wells at a final concentration of 0.1%. […] When the appropriate cell density was attained in the control wells, the plates were centrifuged briefly, and 100 pL of the growth medium was removed. The cell cultures were incubated with 50 μL of MTT reagent (1 mg/mL in Dulbecco's phosphate-buffered saline) for 4 hr at 37° C. The resultant purple formazan precipitate was solubilized with 200 μL of 0.04 N HCl in isopropanol.
(§4) The results of each experiment were stored in Excel format.
(§5) d. Preliminary Experiments: Design and Data Analysis. […] The initial experiments utilized serial three-fold dilutions of the drugs to produce ten test concentrations over a broad concentration range. Based on the initial results, a narrower concentration range was selected, and serial 1:1.5 dilutions were utilized to produce ten test concentrations. Experiments were repeated as needed.
(§6) For assays that utilized lower dilution factors to produce narrower concentration ranges, the results were analyzed with both Prism and CalcuSyn (as described below) to allow comparison of the IC50 and Da, values. The results guided the selection of appropriate concentration ranges and concentration ratios for the combination experiments.
(§7) e. Combination Experiments: Design and Data Analysis. The fixed-ratio design of Chou was used for the combination experiments. For each experiment, the drug solutions were mixed at a ratio that was expected to provide approximately equipotent concentrations, and the mixture was serially diluted with medium containing 1% DMSO to yield 10× stock solutions of the test concentrations. […] Each agent was tested individually and in combination at seven concentrations. The concentration range selected for each assay was designed to bracket the concentrations that produced half-maximal effects (ED50) with each single agent and their mixture. The concentrations used for the single-drug assays were twice as high as their concentrations in the mixture. Each assay was performed in quadruplicate. For each drug combination, the individual agents and their mixture were assayed on the same 96-well plate. The effects of the individual drugs and their combinations were analyzed by the method of Chou and Talalay. The results of each experiment were entered into CalcuSyn (BIOSOFT) for dose-effect analysis.
(§8) where Acontrol and Adrug are the respective absorbances of vehicle control and drug-treated wells in the MIT assay.
(§9) where the slope, m, is related to the sigmoidicity of the dose-effect curve, with m=1, >1, and <1 indicating hyperbolic, sigmoidal, and reverse sigmoidal shapes, respectively.

[2] = test system: SKMES human non-small cell lung carcinoma cell line; experiment: MTT growth inhibition assay, single agents and fixed-ratio combinations with elsamitrucin (Chou-Talalay, CalcuSyn), SKMES; conditions: for IC50: Homo sapiens
Procedure: as §1, §2, §3, §4, §5, §6, §7, §8, §9

[3] = test system: Daudi human lymphoma cell line; experiment: MTT growth inhibition assay, single agents and fixed-ratio combinations with elsamitrucin (Chou-Talalay, CalcuSyn), Daudi; conditions: Homo sapiens, Daudi
Procedure: as §1, §2, §3, §4, §5, §6, §7, §8, §9

[4] = HT29, single agent on the same plate as the combination, read-out: Dm Value, Individually, Second Agent
[5] = Homo sapiens, HT-29, SPA-01 (HT29-e21), single agent, dilution 1:3, read-out: Prism IC50
[6] = Homo sapiens, HT-29, SPA-04 (HT29-e22), single agent, dilution 1:1.5, read-out: CalcuSyn Dm
[7] = Homo sapiens, HT-29, SPA-04 (HT29-e22), single agent, dilution 1:1.5, read-out: Prism IC50
[8] = Homo sapiens, HT-29, SPA-10 (HT29-e24), single agent, dilution 1:1.5, read-out: CalcuSyn Dm
[9] = Homo sapiens, HT-29, SPA-10 (HT29-e24), single agent, dilution 1:1.5, read-out: Prism IC50
[10] = Homo sapiens, HT-29, average of preliminary single-agent experiments, HT29, read-out: Average IC50, Dm value
[11] = SKMES growth inhibition, second agent alone, one value per plate (Experiment ID), read-out: Dm Value (95% Confidence Interval), Individually, Second Agent
[12] = SKMES, single agent on the same plate as the combination, read-out: Dm Value, Individually, Second Agent
[13] = SPA-02 (SKMES-e22), single agent, dilution 1:3, read-out: Prism IC50
[14] = SPA-03 (SKMES-e23), single agent, dilution 1:1.5, read-out: CalcuSyn Dm
[15] = SPA-03 (SKMES-e23), single agent, dilution 1:1.5, read-out: Prism IC50
[16] = SPA-09 (SKMES-e25), single agent, dilution 1:1.5, read-out: CalcuSyn Dm
[17] = SPA-09 (SKMES-e25), single agent, dilution 1:1.5, read-out: Prism IC50
[18] = average of preliminary single-agent experiments, SKMES, read-out: Average IC50, Dm value
[19] = Daudi growth inhibition, second agent alone, one value per plate, Table 8 (Supplement), read-out: Dm Value (95% Confidence Interval), Individually, Second Agent
[20] = Daudi growth inhibition, second agent alone, Table 8, read-out: Dm Value (95% Confidence Interval), Individually, Second Agent
[21] = SPA-05 (Daudi-e01), single agent, dilution 1:3, read-out: Prism IC50
[22] = SPA-08 (Daudi-e02), single agent, dilution 1:1.5, read-out: CalcuSyn Dm
[23] = SPA-08 (Daudi-e02), single agent, dilution 1:1.5, read-out: Prism IC50
[24] = SPA-15 (Daudi-e03), single agent, dilution 1:1.5 (elsamitrucin 1:1.33), read-out: CalcuSyn Dm
[25] = SPA-15 (Daudi-e03), single agent, dilution 1:1.5 (elsamitrucin 1:1.33), read-out: Prism IC50
[26] = average of preliminary single-agent experiments, read-out: Average IC50, Dm value
[27] = read-out: approximate Dm values for the second drugs as single agents
[28] = Homo sapiens, HT-29, HT29, single agent on the same plate as the combination, read-out: Dm Value, Individually, Second Agent

SMILES | IC50 [1, 5] | IC50 [1, 6] | IC50 [1, 7] | IC50 [1, 10] | IC50 [2, 11] | IC50 [2, 12] | IC50 [2, 13] | IC50 [2, 14] | IC50 [2, 15] | IC50 [2, 16] | IC50 [2, 17] | IC50 [2, 18] | IC50 [3, 19] | IC50 [3, 20] | IC50 [3, 21] | IC50 [3, 22] | IC50 [3, 23] | IC50 [3, 26] | IC50 [3, 27] | IC50 [1, 28] | other results
O=c1[nH]cc(F)c(=O)[nH]1 [5-Fluorouracil, 5-fluorouracil] | ~3300 nM | 134 nM | 280 nM | 2040 nM | 4350 nM | 4350 nM | 438 nM | 5200 nM | ~3300 nM | 5580 nM | 3130 nM | 3590 nM | 11700 nM | 11700 nM | ~9200 nM | 11100 nM | 12700 nM | 12200 nM | ~11700 nM |  | change of Dm in the mixture versus single agent ([1]; HT29): increased only slightly; IC50 [1, 4]: 786 nM; IC50 [1, 8]: 4200 nM; IC50 [1, 9]: 1650 nM; IC50 [3, 24]: 13200 nM; IC50 [3, 25]: 11900 nM
CC[C@@]1(O)C(=O)OCc2c1cc1n(c2=O)Cc2cc3ccccc3nc2-1 [Camptothecin, camptothecin] | 16 nM | 26 nM | 23 nM | 153 nM | 8 nM | 8 nM | 6 nM | 11 nM | 11 nM |  |  | 9 nM | 9.3 nM | 9.3 nM | 8.5 nM | 11 nM | 9.5 nM | 10 nM | ~9.3 nM |  | IC50 [1, 8]: 148 nM; IC50 [1, 9]: 550 nM; increase of Dm in the combination ([2]; SKMES, in combination with elsamitrucin versus single agent): less than 1.5 fold
O=NN(CCCl)C(=O)NCCCl [Carmustine, carmustine] | > 10000 nM | 60000 nM | 72000 nM | 66000 nM | 69800 nM | 69800 nM | 1440 nM |  |  | ~96000 nM | ~78000 nM |  |  | 42000 nM |  | 25000 nM | 28000 nM | 24900 nM | ~42000 nM |  | IC50 [1, 4]: 128000 nM; IC50 [3, 24]: 25800 nM; IC50 [3, 25]: 20800 nM
COc1cccc2c1C(=O)c1c(O)c3c(c(O)c1C2=O)C[C@@](O)(C(=O)CO)C[C@@H]3O[C@H]1C[C@H](N)[C@H](O)[C@H](C)O1 [Doxorubicin, doxorubicin] | 40 nM | 57 nM | 29 nM | 42 nM | 83 nM | 56 nM | 7 nM | ~200 nM | ~50 nM | 21 nM | 23 nM | 17 nM | 9 nM | 9 nM | ~1 nM | ~33 nM | ~9.5 nM | 5 nM | ~9 nM |  | IC50 [1, 4]: 48 nM; IC50 [3, 24]: 5 nM; IC50 [3, 25]: 5 nM
COc1cc([C@@H]2c3cc4c(cc3[C@@H](O[C@@H]3O[C@@H]5CO[C@@H](C)O[C@H]5[C@H](O)[C@H]3O)[C@H]3COC(=O)[C@H]23)OCO4)cc(OC)c1O [Etoposide, etoposide] | ~900 nM | 766 nM | 698 nM | 732 nM | 237 nM | 237 nM | 199 nM | 317 nM | 287 nM |  |  | 268 nM | 47 nM | 47 nM | 20.2 nM | 23 nM | 31 nM | 25 nM | ~47 nM | 710 nM | 

Now from value to compound, other results behind:

IC50 [1, 5] | IC50 [1, 6] | IC50 [1, 7] | IC50 [1, 10] | IC50 [2, 11] | IC50 [2, 12] | IC50 [2, 13] | IC50 [2, 14] | IC50 [2, 15] | IC50 [2, 16] | IC50 [2, 17] | IC50 [2, 18] | IC50 [3, 19] | IC50 [3, 20] | IC50 [3, 21] | IC50 [3, 22] | IC50 [3, 23] | IC50 [3, 26] | IC50 [3, 27] | IC50 [1, 28] | SMILES | other results
12 nM | 29 nM | 23 nM | 21 nM | 24 nM | 16 nM |  | 21.5 nM | 19.5 nM |  |  | 21 nM | 3.9 nM | 3.9 nM | 3.7 nM | 3.4 nM | 4 nM | 4 nM | ~3.9 nM | 17.8 nM | CC(C)C[C@H](NC(=O)[C@H](Cc1ccccc1)NC(=O)c1cnccn1)B(O)O [Bortezomib, bortezomib] | 
4.6 nM |  | 10 nM | 5 nM | 1.8 nM | 2.8 nM | 1.5 nM | 1.8 nM | 2.5 nM |  |  | 2 nM | 1.2 nM | 1.2 nM | 0.6 nM | 1.3 nM | 1.4 nM | 1 nM | ~1.2 nM | 4 nM | Nc1ccn([C@@H]2O[C@H](CO)[C@@H](O)C2(F)F)c(=O)n1 [Gemcitabine, gemcitabine] | IC50 [1, 8]: 6 nM; IC50 [1, 9]: 4 nM
25.4 nM | 23 nM | 18 nM | 22 nM | 12 nM | 8.2 nM | ~0.6 nM |  |  | 9.5 nM | 8.5 nM | 10 nM | 45 nM | 45 nM | ~20 nM | 50 nM | 49 nM | 50 nM | ~45 nM | 22 nM | CN(Cc1cnc2nc(N)nc(N)c2n1)c1ccc(C(=O)N[C@@H](CCC(=O)O)C(=O)O)cc1 [Methotrexate, methotrexate] | IC50 ([2]; SPA-14 (SKMES-e27), single agent, dilution 1:1.5 (carmustine also 1:2, r12), read-out: CalcuSyn Dm): 10.7 nM; IC50 ([2]; SPA-14 (SKMES-e27), single agent, dilution 1:1.5 (carmustine also 1:2, r12), read-out: Prism IC50): 10.4 nM
